The supplement of paper PMC10307832

Key:
Experiment in all cases: relative viability (nuclei count vs DMSO), 5 days (fraction); higher = more cells survive
[1] = compound: C1CNCCC1C2=CC(=NN2)C3=CC=NC=C3 + C[C@@H](Oc1cc(-c2cnn(C3CCNCC3)c2)cnc1N)c1c(Cl)ccc(F)c1Cl [Crizotinib] (partner 1 µM)
Summary of the method: (§1)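 Lung cancer cell lines were pin-tool dosed in 1536-well plates on the day after seeding, with either a lone drug or a fixed anchor-drug dose plus five library-drug doses (not always all listed) in √10 steps. Nuclei were counted on 4× images after 5 days. Relative viability is the ratio of treated-well to vehicle-well nuclei counts, with each value a median of duplicate plates.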

[2] = compound: C[C@@H](N)c1ccc(C(=O)Nc2ccnc3[nH]ccc23)cc1 + Nc1ncn([C@H]2C[C@H](O)[C@@H](CO)O2)c(=O)n1 [Decitabine] (partner 2 µM)
Summary of the method: as §1

Tanzisertib + Luminespib = compound: O[C@H]1CC[C@H](Nc2ncc3nc(Nc4c(F)cc(F)cc4F)n([C@H]4CCOC4)c3n2)CC1 [Tanzisertib] + CCNC(=O)c1noc(-c2cc(C(C)C)c(O)cc2O)c1-c1ccc(CN2CCOCC2)cc1 [Luminespib] (partner 0.01 µM)
Summary of the method: as §1

[3] = compound: C1CNCCC1C2=CC(=NN2)C3=CC=NC=C3 + CC(C)C[C@H](NC(=O)[C@H](Cc1ccccc1)NC(=O)c1cnccn1)B(O)O [Bortezomib] (partner 0.002 µM)
Summary of the method: as §1

Cell Line	relative viability ([1]; first compound 0.08 µM)	relative viability ([1]; first compound 0.8 µM)	relative viability ([1]; first compound 2.53 µM)	relative viability ([1]; first compound 8 µM)	relative viability ([2]; first compound 0.04 µM)	relative viability ([2]; first compound 0.1265 µM)	relative viability ([2]; first compound 0.4 µM)	relative viability ([2]; first compound 1.265 µM)	relative viability ([2]; first compound 4 µM)	relative viability (Tanzisertib + Luminespib; first compound 0.08 µM)	relative viability (Tanzisertib + Luminespib; first compound 0.253 µM)	relative viability (Tanzisertib + Luminespib; first compound 0.8 µM)	relative viability (Tanzisertib + Luminespib; first compound 2.53 µM)	relative viability (Tanzisertib + Luminespib; first compound 8 µM)	relative viability ([3]; first compound 0.08 µM)	relative viability ([3]; first compound 0.8 µM)	relative viability ([3]; first compound 2.53 µM)	relative viability ([3]; first compound 8 µM)
SK-MES-1	1.03	0.995	0.992	0.94	0.341	0.309	0.32	0.322	0.314	0.718	0.692	0.698	0.75	0.499	–	–	–	–
NCI-H2405	0.87	0.777	0.873	0.825	–	0.801	0.695	0.448	0.248	0.716	0.713	0.577	0.676	0.609	0.94	0.658	1.02	1
NCI-H1299	0.991	1	0.99	0.9	–	–	–	–	–	–	–	–	–	–	1.02	1.01	1.02	0.999
NCI-H1563	0.644	0.766	0.85	0.941	–	–	–	–	–	0.485	0.498	0.524	0.484	0.446	0.744	0.853	0.917	0.977
NCI-H1944	1.06	1.08	1.1	1.08	0.524	0.425	0.458	0.495	0.404	0.858	0.84	0.749	0.658	0.73	–	–	–	–
LK-2	0.232	0.252	0.221	0.265	0.351	0.287	0.359	0.237	0.352	0.224	0.187	0.191	0.192	0.181	–	–	–	–
Calu-6	0.838	0.91	0.833	0.814	–	–	–	–	–	–	–	–	–	–	0.873	1.13	1.17	1.09
NCI-H1395	–	–	–	–	0.712	0.697	0.725	–	0.642	0.786	0.525	0.632	0.717	0.547	–	–	–	–
NCI-H1703	0.823	0.813	0.824	1.01	–	–	–	–	–	–	–	–	–	–	0.502	0.334	0.351	0.366
EBC-1	0.202	0.219	0.233	0.192	–	–	–	–	–	–	–	–	–	–	0.694	0.575	0.591	0.55
NCI-H2342	–	–	–	–	0.758	0.624	0.809	0.798	0.746	0.688	0.828	0.975	0.759	0.888	–	–	–	–
NCI-H1648	–	–	–	–	0.746	0.545	0.762	0.754	0.815	–	–	–	–	–	–	–	–	–
NCI-H522	–	–	–	–	0.704	0.683	0.727	0.694	0.715	1.38	1.27	0.966	1.16	1.17	–	–	–	–
A549	0.784	0.849	0.857	0.797	0.343	0.254	0.374	0.316	0.286	–	–	–	–	–	–	–	–	–
HCC-78	0.369	–	0.399	0.381	0.772	0.782	0.83	0.725	0.62	–	–	–	–	–	0.439	0.405	0.467	0.619
